The text below walks through data of patent publication US12054660B2, “Compound, composition, cured substance, optically anisotropic body, optical element, and light guide element” (FUJIFILM Corporation, priority 2021, dated 2024).

What all share (type): physicochemical
Data set [1] is described as follows: Evaluation of durability (moisture-heat resistance test) of optically anisotropic layer. The conditions noted are these: rate of change in Re of layer (25 parts compound/75 parts L-1) after 136 hours at 100° C., 95% RH. The method, then:
(§1) As shown below, the durability of the optically anisotropic layer produced using the composition containing each of the compounds A-1 and A-3 to A-20, and the compounds RA-1 and RA-2 was evaluated.
(§2) A coating composition having the following composition was prepared and applied by spin coating onto a rubbing-treated glass attached with an alignment film.
(§3) The polymerizable liquid crystal compound L-1 is a mixture obtained by mixing at a ratio of the following L-1-1/L-1-2/L-1-3=84/14/2 (in terms of mass ratio).
(§4) Re is an in-plane retardation. Rate of change in Re (%)=[100×{|(Re after test)−(Re before test)|}/(Re before test)]
(§5) Re was measured with Axoscan manufactured by Axometrics, Inc. at a wavelength of 550 nm, and the measurement temperature was set to room temperature.
The produced optically anisotropic layer was allowed to be left for 136 hours at 100° C. and a relative humidity of 95% RH, whereby a moisture-heat resistance test was carried out. The rate of change in Re before and after the durability test was evaluated, the durability in a case where the rate of change in Re was less than 10% was evaluated as A, and the durability in a case where the rate of change in Re was 10% or more was evaluated as B. The smaller the rate of change in Re, the more excellent the durability.

Data set [2] is described as follows: Evaluation of liquid crystallinity (hot stage, polarization microscope). The conditions noted are these: heated on a hot stage. Set-up: key: A case of having liquid crystallinity was evaluated as A; a case of having no liquid crystallinity was evaluated as B. The source says: As a specific observation method, optical anisotropy and fluidity derived from the liquid crystal phase can be checked by carrying out an observation under a polarization microscope while heating or lowering the temperature of the compound with a hot stage or the like.
The respective compounds of Examples and Comparative Examples (the compounds A-1, A-3 to A-20, and the compounds RA-1 and RA-2) were heated on a hot stage and observed with a polarization microscope, and the phase transition temperature was measured to evaluate the presence or absence of liquid crystallinity. A case of having liquid crystallinity was evaluated as A, and a case of having no liquid crystallinity was evaluated as B. The results are shown in Table 1.

Data set [3] can be described thus: Measurement of Δn (refractive index anisotropy), wedge-shaped liquid crystal cell. The conditions noted are these: 550 nm, 30° C. or lower limit temperature of nematic phase+0 to 10° C.; some extrapolated from 1/2 mixture with L-1-1. The procedure: The Δn of each of the compounds of Examples and Comparative Examples (the compounds A-1, A-3 to A-20, and the compounds RA-1 and RA-2), which are the compounds to be measured, was measured by a method using a wedge-shaped liquid crystal cell described on page 202 in the Liquid crystal handbook (edited by the liquid crystal handbook editorial board, published by Maruzen Co., Ltd., 2000). An was defined as a measured value at a wavelength of 550 nm at 30° C. or the lower limit temperature of the nematic phase+0° C. to 10° C. In a case of a compound which is liable to crystallize or a compound having no liquid crystallinity, evaluation was carried out using a mixture thereof with the other liquid crystal compound, and Δn was estimated from the extrapolated value of the measured value thereof. The following L-1-1 was used as the other liquid crystal compound. As the above mixture, a mixture obtained by mixing at a ratio of the compound to be measured/the L-1-1=1/2 (in terms of mass ratio) was used.
A case where Δn was 0.35 or more was evaluated as A, a case where Δn was 0.32 or more and less than 0.35 was evaluated as B, a case where Δn was 0.30 or more and less than 0.32 was evaluated as C, and a case where Δn was less than 0.30 was evaluated as D. The results are shown in Table 1.

Data set [4] is described as follows: Evaluation of light resistance of optically anisotropic layer. The conditions noted are these: rate of change in Re of layer (25 parts compound/75 parts L-1) after xenon irradiation 50 hours, 63° C., 50% RH, oxygen-blocking. The method, then: as §1, §2, §3
The produced optically anisotropic layers for light resistance/durability tests were irradiated with light using a Super Xenon Weather Meter SX75 manufactured by Suga Test Instruments Co., Ltd. Using KU-1000100 manufactured by King Seisakusho Co., Ltd. as an ultraviolet ray cut filter, irradiation with 5 million 1× of light was carried out for 50 hours under the oxygen-blocking conditions to carry out a light resistance test. The temperature of the specimen to be tested (the temperature inside the test device) was set to 63° C. The relative humidity in the test device was 50% RH.
The Re of the optically anisotropic layer before and after the light resistance test was measured, the light resistance in a case where the rate of change in Re described below was less than 10% was evaluated as A, and the light resistance in a case where the rate of change in Re was 10% or more was evaluated as B. The smaller the rate of change in Re, the more excellent the light resistance.
as §4, §5

A short description of data set [5]: Evaluation of solubility in methyl ethyl ketone. The conditions noted are these: precipitation concentration in methyl ethyl ketone at room temperature (25° C.). The method, then:
The solubility of each of the compounds of Examples and Comparative Examples (the compounds A-1, A-3 to A-20, and the compounds RA-1 and RA-2) in methyl ethyl ketone was evaluated. A solution in which the compound was ultrasonically dissolved or dissolved by heating was produced.

Consider `CC(=O)OCCSc1ccc(C#Cc2ccc(CSc3ccc(C#Cc4ccc(CCOC(C)=O)cc4)cc3)cc2C)cc1` [Compound A-1], for which the Durability entry in data set [1] is listed as “B (the durability in a case where the rate of change in Re was 10% or more was evaluated as B)”. The Liquid crystallinity entry in data set [2] is given as “B”. Besides, the Δn result in data set [3] is listed as “A (A case where Δn was 0.35 or more was evaluated as A)”. The Light resistance entry in data set [4] is on record as “A (the light resistance in a case where the rate of change in Re described below was less than 10% was evaluated as A)”. Further, the Solubility result in data set [5] is on record as “A (the solubility in a case where the precipitation concentration was 10% by mass or more was evaluated as A)”.
The corresponding values for `C=CC(=O)OCCSc1ccc(C#Cc2ccc(COc3ccc(C#Cc4ccc(SCCOC(=O)C=C)cc4)cc3C)cc2)cc1` [Compound A-6] are “A (the durability in a case where the rate of change in Re was less than 10% was evaluated as A)”, “A”, “A (A case where Δn was 0.35 or more was evaluated as A)”, “A (the light resistance in a case where the rate of change in Re described below was less than 10% was evaluated as A)” and “A (the solubility in a case where the precipitation concentration was 10% by mass or more was evaluated as A)”.
The corresponding values for `C=CC(=O)OCCSc1ccc(C#Cc2ccc(OCc3ccc(C#Cc4ccc(SCCOC(=O)C=C)cc4)s3)c(C(=O)OC)c2)cc1` [Compound A-16] are “A (the durability in a case where the rate of change in Re was less than 10% was evaluated as A)”, “A”, “A (A case where Δn was 0.35 or more was evaluated as A)”, “B (the light resistance in a case where the rate of change in Re was 10% or more was evaluated as B)” and “A (the solubility in a case where the precipitation concentration was 10% by mass or more was evaluated as A)”.
